According to the supplement of paper PMC10307832:

How the values were obtained:
Test in all cases: relative viability (nuclei count vs DMSO), 5 days (fraction); higher = more cells survive
[1] = compound: C1COCCN1C2=NC(=NC3=C2OC4=C3C=CC=N4)C5=CC(=CC=C5)NC(=O)C6=CN=C(C=C6)N
Method in brief: (§1)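 Hoechst staining, done together with fixation and permeabilisation, marked nuclei for 4× imaging and MetaXpress counting. This followed 5 days without medium change after lung cancer cell lines, kept overnight at 37 °C in 1536-well plates, were pinned with five library-drug doses (not always all listed) spaced by √10 on vehicle-anchored plates. Viability is the ratio of treated-well to vehicle-well nuclei, expressed as a median across plates. Plates passed only at control CV below 25% with at least one doubling.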

[2] = compound: CN1CCC(CNc2ccc3ncc(-c4cccc(OC(F)(F)F)c4)n3n2)CC1 [SGI-1776]
Method in brief: as §1

[3] = compound: Nc1ccccc1NC(=O)c1ccc(CNC(=O)OCc2cccnc2)cc1 [Entinostat]
Method in brief: as §1

[4] = compound: CN1CCC(CNc2ccc3ncc(-c4cccc(OC(F)(F)F)c4)n3n2)CC1 [SGI-1776] + C[C@@H](Oc1cc(-c2cnn(C3CCNCC3)c2)cnc1N)c1c(Cl)ccc(F)c1Cl [Crizotinib] (partner 1 µM)
Method in brief: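 Nuclei were stained with Hoechst during a one-step fixation (final 0.05% Triton X-100, 1% formaldehyde, 1 ug/ml Hoechst) carried out 5 days after dosing, then counted on 4× images. The cells, lung cancer lines in 1536-well plates, had been dosed by pin tool the day after seeding with one drug alone or a fixed anchor-drug dose plus five library-drug doses (not always all listed) in √10 steps. Relative viability is the nuclei count in treated wells divided by that in vehicle wells, and each value is the median of duplicate plates.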

Cell Line	relative viability ([1]; 0.02 µM)	relative viability ([1]; 0.06325 µM)	relative viability ([1]; 0.2 µM)	relative viability ([1]; 0.6325 µM)	relative viability ([1]; 2 µM)	relative viability ([2]; 0.08 µM)	relative viability ([2]; 0.8 µM)	relative viability ([2]; 2.53 µM)	relative viability ([2]; 8 µM)	relative viability ([3]; 0.02 µM)	relative viability ([3]; 0.06325 µM)	relative viability ([3]; 0.2 µM)	relative viability ([3]; 0.6325 µM)	relative viability ([3]; 2 µM)	relative viability ([4]; first compound 0.08 µM)	relative viability ([4]; first compound 0.8 µM)	relative viability ([4]; first compound 2.53 µM)	relative viability ([4]; first compound 8 µM)
201T	0.963	0.994	0.985	1	0.897	1.01	0.991	0.964	0.891	1.04	1.04	1.03	0.712	0.624	1.05	1.04	1.01	1.01
A549	1.05	1.1	0.97	0.991	0.471	0.992	1.01	0.959	0.795	1.02	1.03	0.901	0.842	0.508	0.789	0.843	0.553	0.138
A-427	0.971	0.994	0.909	0.857	0.704	1.08	1.08	0.975	0.84	1.1	1.12	0.978	0.878	0.619	0.849	0.92	0.974	0.601
ABC-1	1.09	0.879	0.83	1.1	0.927	1.02	0.916	0.835	0.897	1.01	1.05	1.15	0.808	0.398	0.989	1.17	0.707	0.317
BEN	1.03	0.917	1.02	0.934	0.837	0.984	0.955	0.819	0.812	0.97	1.04	0.835	0.653	0.357	0.799	0.851	0.844	0.628
CAL-12T	0.937	1.05	0.972	1.02	0.788	1.06	1.14	0.913	0.996	1.04	1.05	1.2	0.982	0.691	0.682	0.327	0.254	0.232
COR-L23	0.981	1.2	1.18	1.09	0.681	1.06	1.07	1.05	0.883	1	1.02	0.904	0.555	0.227	0.821	0.491	0.519	0.495
COR-L 105	0.868	0.717	0.751	0.695	0.591	1.09	1.01	0.949	0.722	0.947	1.14	1.06	0.747	0.371	1.03	0.717	0.464	0.287
Calu-6	1.05	1.04	1.01	0.998	0.685	1.06	1.02	0.976	0.852	1.02	1.02	1.02	0.761	0.544	0.806	0.624	0.402	0.289
ChaGo-K-1	0.949	1.07	0.897	1.01	0.837	1.06	1.01	0.949	0.855	1.04	0.934	1.11	0.961	0.881	1.16	1.12	1.13	0.362
EBC-1	0.911	1.16	0.936	0.964	0.576	1.04	0.952	0.971	0.67	1.06	1.02	0.865	0.306	0.165	0.21	0.175	0.186	0.123
EKVX	1.02	1.07	0.963	1.01	0.825	1.12	1.1	0.989	0.895	1.02	1.11	0.894	0.686	0.444	0.847	1.01	0.977	0.882
EMC-BAC-2	1.05	0.972	0.912	0.92	0.885	1.05	1.06	0.973	0.87	1.18	0.965	0.91	0.598	0.398	0.838	0.7	0.701	0.461
EPLC-272H	0.907	0.987	0.889	0.715	0.717	1.05	1.1	1.29	0.766	0.985	0.91	0.883	0.406	0.296	0.832	0.891	0.909	0.772
H3255	0.944	0.956	0.945	0.951	0.8	1.07	1.04	1.04	0.829	0.98	0.915	0.764	0.535	0.369	1.03	1.01	0.896	0.62
HARA	1.06	0.834	1.02	0.976	0.908	1.02	1.13	1	0.75	0.955	1.06	1.18	0.805	0.488	1.17	1.17	1.01	0.775
HCC-15	1.03	1.09	0.971	0.966	0.75	1.04	1.1	0.989	0.833	0.939	0.962	0.899	0.457	0.333	0.819	0.816	0.761	0.764
HCC-44	0.986	0.919	0.97	1.07	0.959	1.02	0.957	0.93	0.962	0.99	0.858	0.773	0.414	0.275	0.818	0.828	0.867	0.764
